Reference: patent US8314240B2, “Sulfonamide compounds or salts thereof” (Astellas Pharma Inc., priority 2008, dated 2012)

Assays:
[1] = molecular target: T1, rat EP1 receptor (Rattus norvegicus, UniProt P70597); assay: Test to measure receptor antagonistic activity using EP1 receptor-expressing cells (PGE2-induced intracellular Ca change, FLIPR); type: cell-based; details: HEK293 cells stably expressing rat EP1 receptor, 100 nM PGE2
T1 construct: expressed in transfected cells
T1 sequence (P70597 1-405): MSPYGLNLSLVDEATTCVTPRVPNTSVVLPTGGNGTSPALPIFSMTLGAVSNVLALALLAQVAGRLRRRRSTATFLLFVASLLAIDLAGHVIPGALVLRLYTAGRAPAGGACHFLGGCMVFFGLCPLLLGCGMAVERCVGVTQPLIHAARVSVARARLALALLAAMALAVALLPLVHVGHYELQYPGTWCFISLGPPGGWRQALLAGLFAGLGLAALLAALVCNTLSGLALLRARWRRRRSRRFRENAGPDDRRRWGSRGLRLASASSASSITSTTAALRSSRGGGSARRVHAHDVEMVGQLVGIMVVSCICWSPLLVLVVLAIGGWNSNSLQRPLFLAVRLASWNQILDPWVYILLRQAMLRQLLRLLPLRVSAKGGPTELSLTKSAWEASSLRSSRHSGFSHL
Protocol: Test Example 1 Test to Measure Receptor Antagonistic Activity Using EP1 Receptor-Expressing Cells
HEK293 cells (American Type Culture Collection) that stably expressed rat EP1 receptor were dispensed onto a 96-well poly-D-lysine-coated plate (product name: BIOCOAT, PDL96W black/clear, by Nippon Becton Dickinson) at 2×10^4 cells/well on the day before the experiment, and incubated overnight at 37° C. under 5% carbon dioxide (CO2) in a culture medium containing 10% fetal bovine serum (FBS) (product name: DMEM, Invitrogen). The culture medium was replaced with a loading buffer (a washing solution containing 4 μM of fluorescent-labeled indicator (product name: Fluo3-AM, Dojindo): Hank's balanced salt solution (HBSS), 20 mM 2-[4-(2-hydroxyethyl)-1-piperazinyl]ethanesulfonic acid (HEPES)-sodium hydroxide (NaOH), 2.5 mM Probenecid, and 0.1% bovine serum albumin (BSA)), and left to stand at room temperature for 3 hours, and the cells were washed using a plate washer (product name: ELx405, Bio-Tek Instruments, Inc.) in which the washing solution had been set up. The compound that had been preliminarily dissolved and diluted in the washing solution was added thereto, and set up in a system for measuring the intracellular calcium (Ca) concentration (product name: FLIPR, Molecular Devices, Inc.). After 5 minutes, PGE2 was added to a final concentration of 100 nM, and the change in intracellular Ca concentration was measured. The difference between a maximum value and a minimum value in the intracellular Ca concentration change was determined, and retained as measurement data. When a response with addition of 100 nM PGE2 was taken as 0% and a response with addition of a buffer was taken as 100%, the concentration causing 50% inhibition was determined as an IC50 value. Further, in the table, Ex represents Example numbers as described later.

[2] = Test on metabolic stability in human liver microsome; type: in vitro ADME; details: human liver microsomes, pH 7.4; human liver microsome 0.2 mg protein/ml, 37° C. 15 minutes, in vitro clearance by integration plot
Protocol: Test Example 5 Test on Metabolic Stability in Human Liver Microsome
Using a glass test tube, a test compound and human liver microsome (0.2 mg protein/ml) were incubated at 37° C. for 15 minutes in a 100 mM phosphate buffer (pH=7.4) containing 0.1 mM EDTA and 1 mM NADPH. Thereafter, the reaction was stopped by adding an aqueous solution containing 80% acetonitrile. Thereafter, each sample was analyzed by HPLC and the in vitro clearance (CLint) was calculated by an integration plot.

[3] = molecular target: T2, CYP3A4 (Homo sapiens, UniProt P08684); assay: Cytochrome P450 (CYP) 3A4 enzyme inhibition, Inhibition Test I; type: in vitro ADME; details: human liver microsomes, probe midazolam; human liver microsome 0.1 mg protein/ml, substrate midazolam, 37° C. 20 minutes; read-out: Inhibitory activity I (%)
T2 construct: human liver microsome (0.1 mg protein/ml); from tissue; host or cells: human liver microsome
T2 sequence (P08684 whole entry): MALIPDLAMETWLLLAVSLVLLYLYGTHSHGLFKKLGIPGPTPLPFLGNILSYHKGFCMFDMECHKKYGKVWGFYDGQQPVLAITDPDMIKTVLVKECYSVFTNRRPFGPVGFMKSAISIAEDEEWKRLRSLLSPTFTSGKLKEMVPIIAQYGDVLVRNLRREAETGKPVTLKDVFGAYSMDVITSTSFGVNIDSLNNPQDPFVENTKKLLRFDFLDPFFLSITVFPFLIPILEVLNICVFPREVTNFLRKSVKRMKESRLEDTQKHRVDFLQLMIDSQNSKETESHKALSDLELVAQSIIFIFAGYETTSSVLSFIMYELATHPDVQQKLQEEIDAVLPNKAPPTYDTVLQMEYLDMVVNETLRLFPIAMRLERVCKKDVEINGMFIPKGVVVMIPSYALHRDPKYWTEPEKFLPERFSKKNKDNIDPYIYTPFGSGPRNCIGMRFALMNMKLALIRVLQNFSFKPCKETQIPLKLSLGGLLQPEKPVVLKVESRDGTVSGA
Protocol: (§1) Test Example 4 Test on Cytochrome P450 (CYP) 3A4 Enzyme Inhibition (Evaluation of Drug Interaction)
(1) Inhibition Test I (Calculation of Inhibitory Activity I)
Using a 96-well plate, a substrate (midazolam), a test compound and human liver microsome (0.1 mg protein/ml) were incubated at 37° C. for 20 minutes in a 100 mM phosphate buffer containing 0.1 mM EDTA and 1 mM NADPH. Then, the reaction was stopped by adding an aqueous solution containing 80% acetonitrile. Thereafter, each sample was analyzed by LC/MS, and the inhibitory activity I was calculated using the following formula. Inhibitory Activity I(%)=100−Vi.I/V0.I×100
Vi,I: Metabolic rate of substrate in the presence of the test compound at a known concentration in the inhibition test I
V0,I: Metabolic rate of substrate in the absence of the test compound in the inhibition test I

[4] = molecular target: T2, CYP3A4; assay: Cytochrome P450 (CYP) 3A4 enzyme inhibition, Inhibition Test II (preincubation); type: in vitro ADME; details: human liver microsomes, pH 7.4, probe midazolam; human liver microsome 0.1 mg protein/ml, 30 minutes preincubation with test compound, then midazolam 20 minutes; read-out: Inhibitory activity II (%)
Protocol: as §1
(2) Inhibition Test II (Calculation of Inhibitory Activity II)
Using a 96-well plate, a test compound and human liver microsome (0.1 mg protein/ml) were incubated at 37° C. for 30 minutes in a total amount of 145 μl of 100 mM phosphate buffer (pH=7.4) containing 0.1 mM EDTA and 1 mM NADPH. Then, midazolam as the substrate was added thereto and incubated at 37° C. for 20 minutes. After the incubation, the reaction was stopped by adding an aqueous solution containing 80% acetonitrile. Thereafter, each sample was analyzed by LC/MS, and the inhibitory activity II was calculated using the following formula. Inhibitory Activity II(%)=100−Vi,II/V0,II/(100-inhibitory activity I(%))×100×100
Vi,II: Metabolic rate of substrate in the presence of the test compound at a known concentration in the inhibition test II
V0,II: Metabolic rate of substrate in the absence of the test compound in the inhibition test II

Row | Compound | IC50 [1] | CLint scaled [2] | inhibition at 20 min [3] | inhibition at 20 min [4]
1 | Cc1csc(S(=O)(=O)N(CC(C)F)c2cc3c(cc2OCc2ccc(C(=O)O)s2)CCC3)n1 (stereo not shown) [Example 80] | 0.85 nM | 212 mL/min/kg |  | 
2 | C[C@@H](F)CN(c1cc2c(cc1OCc1ccc(C(=O)O)cc1)CCC2)S(=O)(=O)c1ccccn1 [Example 102] | 1.8 nM | 244 mL/min/kg | 1% | 0%
3 | Cc1csc(S(=O)(=O)N(C[C@H](C)F)c2cc3c(cc2OCc2ccc(C(=O)O)c(F)c2)CCC3)n1 [Example 113] | 0.9 nM |  |  | 
4 | Cc1cc(OCc2ccc(C(=O)O)cc2)c(N(C[C@@H](C)CF)S(=O)(=O)c2ccccn2)cc1C [Example 117] | 1.9 nM | 58 mL/min/kg | 3% | 5%

These reach a lower IC50 [1]. Values come first.

Row | IC50 [1] | CLint scaled [2] | inhibition at 20 min [3] | inhibition at 20 min [4] | Compound
5 | 0.3 nM |  |  |  | Cc1cc(C(=O)O)ccc1COc1cc2c(cc1N(CC(C)F)S(=O)(=O)c1cc(F)cc(F)c1)CCC2 (stereo not shown) [Example 63]
6 | 0.53 nM |  |  |  | Cc1csc(S(=O)(=O)N(CC(C)F)c2cc3c(cc2OCc2ccc(C(=O)O)cc2C)CCC3)n1 (stereo not shown) [Example 66]
7 | 0.32 nM | 153 mL/min/kg |  |  | Cc1csc(S(=O)(=O)N(CC(C)F)c2cc(C)c(Cl)cc2OCc2ccc(C(=O)O)cc2)n1 (stereo not shown) [Example 71]
8 | 0.4 nM | 228 mL/min/kg | 12% | 7% | C[C@H](F)CN(c1cc2c(cc1OCc1ccc(C(=O)O)cc1)CCC2)S(=O)(=O)c1cccnc1 [Example 103]
